Assay results reported in publication PMC7251097, “Aspartate/asparagine-β-hydroxylase: a high-throughput mass spectrometric assay for discovery of small molecule inhibitors” (Scientific Reports, 2020).
Structures can show the parent of a compound that is named as a salt. Where two headings read alike, the source gives them in different places.

Target: T1, His6-AspH315–758 (human aspartate/asparagine-β-hydroxylase, AspH) (Homo sapiens, UniProt Q12797)
T1 construct: N-Terminally His6-tagged human AspH315–758 (His6-AspH315–758) was produced in E. coli BL21 (DE3) cells; made in house; host or cells: E. coli BL21 (DE3), pET-28a(+) vector
T1 sequence (Q12797 315-758): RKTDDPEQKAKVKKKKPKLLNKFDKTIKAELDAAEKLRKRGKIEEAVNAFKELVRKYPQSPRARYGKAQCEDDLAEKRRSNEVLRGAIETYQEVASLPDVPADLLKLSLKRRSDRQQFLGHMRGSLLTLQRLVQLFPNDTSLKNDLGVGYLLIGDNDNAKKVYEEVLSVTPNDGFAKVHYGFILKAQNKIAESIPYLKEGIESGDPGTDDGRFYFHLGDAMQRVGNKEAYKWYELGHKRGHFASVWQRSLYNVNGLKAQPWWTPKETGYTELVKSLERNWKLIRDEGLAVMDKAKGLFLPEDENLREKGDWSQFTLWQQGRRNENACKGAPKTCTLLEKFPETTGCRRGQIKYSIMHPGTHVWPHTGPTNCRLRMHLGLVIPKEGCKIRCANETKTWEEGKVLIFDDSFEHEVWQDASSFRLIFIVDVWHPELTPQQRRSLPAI
Assay: SPE-MS AspH inhibition assay (LOPAC screen at fixed 20 μM and IC50 dose-response), hydroxylation of cyclic peptide hFX-CP101–119
Assay type: biochemical

[1] = LOPAC compound at fixed 20 uM, plate 1, normalised to DMSO and 2,4-PDCA controls
[2] = LOPAC compound at fixed 20 uM, substrate conversion, plate 1
[3] = LOPAC Plate 4, compound at 20 uM, substrate conversion
[4] = AspH activity, fixed compound concentration 20 μM, initial LOPAC screen, 0.5%v/v DMSO, read-out: Inhibition at 20 µM [%]

SMILES: CC(=O)SCC[N+](C)(C)C.[Cl-] [Acetylthiocholine chloride]
- Plate 1 (% conversion): 37.52%
- Plate 1 (% inhibition): -4.90%

SMILES: CCN1C[C@]2(COC)[C@H](O)C[C@H](OC)[C@@]34[C@@H]5C[C@@]6(O)[C@H](OC(=O)c7ccccc7)[C@@H]5[C@@](OC(C)=O)([C@@H]([C@H](OC)[C@H]23)[C@@H]14)[C@@H](O)[C@@H]6OC [Aconitine]
- Plate 1 (% conversion): 40.69%
- Plate 1 (% inhibition): -14.35%

SMILES: CCCCC[C@H](CC(=O)NO)C(=O)N[C@H](C(=O)N1CCC[C@H]1CO)C(C)C [Actinonin]
- Plate 1 (% inhibition) [1]: -5.32%
- Plate 1 (% conversion) [2]: 37.66%

SMILES: Nc1nc2c(ncn2COCCO)c(=O)[nH]1 [Acyclovir]
- Plate 1 (% inhibition) [1]: -3.39%
- Plate 1 (% conversion) [2]: 37.01%

SMILES: Nc1ncnc2c1ncn2[C@@H]1O[C@H](CO)[C@@H](O)[C@H]1O [Adenosine]
- Plate 1 (% inhibition) [1]: 4.27%
- Plate 1 (% conversion) [2]: 34.44%

SMILES: NCCCCN=C(N)N [Agmatine sulfate]
- Plate 1 (% conversion): 36.66%
- Plate 1 (% inhibition) [1]: -2.35%

SMILES: COc1ccc2cccc(CCNC(C)=O)c2c1 [Agomelatine]
- Plate 3 (% conversion) (LOPAC compound at 20uM, plate 3, conversion of substrate peptide): 37.59%

SMILES: CC(C)(C)NCC(O)c1ccc(O)c(CO)c1.CC(C)(C)NCC(O)c1ccc(O)c(CO)c1.O=S(=O)(O)O (centres unmarked) [Albuterol hemisulfate]
- % conversion [3]: 30.81%

SMILES: COc1cc2nc(N(C)CCCNC(=O)C3CCCO3)nc(N)c2cc1OC (centres unmarked) [Alfuzosin hydrochloride]
- Plate 1 (% inhibition) [1]: -12.38%
- Plate 1 (% conversion) [2]: 40.03%

SMILES: O=c1nc2[nH]c3ccccc3nc-2c(=O)[nH]1 [Alloxazine]
- Plate 1 (% inhibition) [1]: -13.62%
- Plate 1 (% conversion) [2]: 40.45%

SMILES: C=CCc1ccccc1OCC(O)CNC(C)C (centres unmarked) [Alprenolol hydrochloride]
- Plate 1 (% inhibition) [1]: -9.33%
- Plate 1 (% conversion) [2]: 39.00%

SMILES: CN(C)c1nc(N(C)C)nc(N(C)C)n1 [Altretamine]
- Plate 1 (% inhibition) [1]: -0.35%
- Plate 1 (% conversion) [2]: 35.99%

SMILES: NC12CC3CC(CC(C3)C1)C2 [Amantadine hydrochloride]
- Plate 1 (% inhibition) [1]: -1.83%
- Plate 1 (% conversion) [2]: 36.49%

SMILES: NCCCNCCSP(=O)(O)O [Amifostine]
- Plate 1 (% conversion): 40.67%
- Plate 1 (% inhibition) [1]: -14.28%

SMILES: N=C(N)NC(=O)c1nc(Cl)c(N)nc1N [Amiloride hydrochloride]
- Plate 1 (% inhibition) [1]: 4.62%
- Plate 1 (% conversion) [2]: 34.32%

SMILES: CN1[C@@H]2CC[C@H]1C[C@@H](OC(c1ccccc1)c1ccccc1N)C2 (some centres unmarked) [Aminobenztropine]
- Plate 1 (% conversion): 38.12%
- Plate 1 (% inhibition) [1]: -6.68%

SMILES: NN=C(N)N.NN=C(N)N.O=S(=O)(O)O [Aminoguanidine hemisulfate]
- Plate 1 (% inhibition) [1]: 3.68%
- Plate 1 (% conversion) [2]: 34.64%

SMILES: Cl.N=C(N)NN [Aminoguanidine hydrochloride]
- Plate 1 (% inhibition) [1]: -12.95%
- Plate 1 (% conversion) [2]: 40.22%

SMILES: Cn1c(=O)c2[nH]cnc2n(C)c1=O.Cn1c(=O)c2[nH]cnc2n(C)c1=O.NCCN [Aminophylline ethylenediamine]
- Plate 1 (% inhibition) [1]: -9.00%
- Plate 1 (% conversion) [2]: 38.90%

SMILES: Nc1nc(N)c2nc(CNc3ccc(C(=O)N[C@@H](CCC(=O)O)C(=O)O)cc3)cnc2n1 [Aminopterin]
- Plate 1 (% conversion): 36.60%
- Plate 1 (% inhibition) [1]: -2.16%

SMILES: CCCCc1oc2ccccc2c1C(=O)c1cc(I)c(OCCN(CC)CC)c(I)c1 [Amiodarone hydrochloride]
- Plate 1 (% inhibition) [1]: 32.10%

SMILES: CCN1CCCC1CNC(=O)c1cc(S(=O)(=O)CC)c(N)cc1OC (centres unmarked) [Amisulpride]
- % conversion [3]: 40.99%
- inhibition at 20 µM (LOPAC Plate 4, compound at 20 uM, read-out: % inhibition): -13.2%

SMILES: CN(C)CCC=C1c2ccccc2CCc2ccccc21 [Amitriptyline hydrochloride]
- Plate 1 (% conversion): 38.67%
- Plate 1 (% inhibition) [1]: -8.33%

SMILES: N.S=C(S)N1CCCC1 [Ammonium pyrrolidinedithiocarbamate]
- % conversion [3]: 37.86%

SMILES: Clc1ccc2c(c1)C(N1CCNCC1)=Nc1ccccc1O2 [Amoxapine]
- Plate 1 (% inhibition) [1]: -8.96%
- Plate 1 (% conversion) [2]: 38.88%

SMILES: COc1cc(NS(C)(=O)=O)ccc1Nc1c2ccccc2nc2ccccc12 [Amsacrine hydrochloride]
- Plate 1 (% inhibition) [1]: -10.85%
- Plate 1 (% conversion) [2]: 39.52%

SMILES: N=c1ccn2c(n1)O[C@H]1[C@H](O)[C@@H](CO)O[C@H]12 [Ancitabine hydrochloride]
- Plate 1 (% inhibition) [1]: -4.15%

SMILES: COc1ccc(C(=O)N2CCCC2=O)cc1 [Aniracetam]
- Plate 1 (% conversion): 23.49%
- Plate 1 (% inhibition): 36.86%

SMILES: Cl.c1ccc(CN(CC2=NCCN2)c2ccccc2)cc1 [Antozoline hydrochloride]
- Plate 1 (% inhibition) [1]: -17.43%
- Plate 1 (% conversion) [2]: 41.73%

SMILES: O=c1cc(-c2ccc(O)cc2)oc2cc(O)cc(O)c12 [Apigenin, reference compound]
- inhibition at 20 µM [4]: 95.8%
- Plate 1 (% inhibition) [1]: 95.84%
- Plate 1 (% conversion) [2]: 3.68%

SMILES: CN1CCc2cccc3c2[C@H]1Cc1ccc(O)c(O)c1-3 [Apomorphine hydrochloride hemihydrate]
- Plate 1 (% inhibition) [1]: 80.27%
- Plate 1 (% conversion) [2]: 8.92%

SMILES: CCN(CC)CCCN(c1ccccc1)C1Cc2ccccc2C1 [Aprindine hydrochloride]
- % conversion [3]: 34.60%

SMILES: Nc1nc2c(ncn2[C@@H]2O[C@H](CO)[C@@H](O)[C@@H]2O)c(=O)[nH]1.O [Ara-G hydrate]
- % inhibition (LOPAC Plate 4, compound at 20 uM): -11.19%
- % conversion [3]: 40.29%

SMILES: NC(N)=NCCCCN=C(N)N [Arcaine sulfate]
- Plate 1 (% inhibition) [1]: -5.14%
- Plate 1 (% conversion) [2]: 37.60%

SMILES: C#CCOC(=O)C1=CCCN(C)C1 [Arecaidine propargyl ester hydrobromide]
- Plate 1 (% conversion): 37.75%
- Plate 1 (% inhibition): -5.59%

SMILES: COC(=O)C1=CCCN(C)C1 [Arecoline hydrobromide]
- Plate 1 (% conversion): 37.04%
- Plate 1 (% inhibition): -3.47%

SMILES: CC1CNc2c(cccc2S(=O)(=O)N[C@@H](CCCNC(=N)N)C(=O)N2CC[C@@H](C)C[C@@H]2C(=O)O)C1 (some centres unmarked) [Argatroban monohydrate]
- Plate 1 (% inhibition) [1]: -7.94%
- Plate 1 (% conversion) [2]: 38.54%

SMILES: CO[C@H]1O[C@@H]2O[C@@]3(C)CC[C@H]4[C@H](C)CC[C@@H]([C@H]1C)[C@@]24OO3 [Artemether]
- Plate 1 (% inhibition) [1]: -9.16%
- Plate 1 (% conversion) [2]: 38.95%

SMILES: CC1=C(/C=C/C(C)=C/C=C/C(C)=C/C=C/C=C(C)/C=C/C=C(C)/C=C/C2=C(C)C(=O)[C@@H](O)CC2(C)C)C(C)(C)C[C@H](O)C1=O [Astaxanthin]
- Plate 1 (% inhibition) [1]: -2.40%
- Plate 1 (% conversion) [2]: 36.68%

SMILES: CC(C)c1c(C(=O)Nc2ccccc2)c(-c2ccccc2)c(-c2ccc(F)cc2)n1CC[C@@H](O)C[C@@H](O)CC(=O)O [Atorvastatin calcium salt trihydrate]
- Plate 1 (% inhibition) [1]: 1.55%
- Plate 5 (% inhibition) (plate 5 (Pfitzer), test compounds at fixed 20 μM): 17.18%

SMILES: C[N+]1(C)[C@@H]2CC[C@H]1C[C@@H](OC(=O)C(CO)c1ccccc1)C2 (some centres unmarked) [Atropine methyl bromide]
- Plate 1 (% inhibition) [1]: -14.40%
- Plate 1 (% conversion) [2]: 40.71%

SMILES: C[N+]1(C)[C@@H]2CC[C@H]1C[C@@H](OC(=O)C(CO)c1ccccc1)C2 (some centres unmarked) [Atropine methyl nitrate]
- Plate 1 (% inhibition) [1]: 2.78%
- Plate 1 (% conversion) [2]: 34.94%

SMILES: CN1[C@@H]2CC[C@H]1C[C@@H](OC(=O)C(CO)c1ccccc1)C2 (some centres unmarked) [Atropine sulfate]
- Plate 1 (% inhibition): 2.77%

SMILES: CC(=O)OC[C@H]1O[C@@H]([S-])[C@H](OC(C)=O)[C@@H](OC(C)=O)[C@@H]1OC(C)=O.CCP(CC)CC.[Au+] [Auranofin]
- % conversion: 18.61%
- % inhibition (20 µM): 52.32%

SMILES: CC(C)=CCC/C(C)=C/COc1ccc2ccc(=O)oc2c1 [Auraptene]
- % conversion [3]: 37.42%

SMILES: O=C(O)C1=CC(=C(c2ccc(O)c(C(=O)O)c2)c2ccc(O)c(C(=O)O)c2)C=CC1=O [Aurintricarboxylic acid, reference compound]
- inhibition at 20 µM [4]: 104%
- Plate 1 (% inhibition) [1]: 103.81%
- Plate 1 (% conversion) [2]: 1.01%
